A short description of the data set: Ease of solubility in cosmetically acceptable solvents. It counts as physicochemical. As to conditions: in contrast to Ursolic acid. The source says: In order to formulate an effective cosmetic product, the individual ingredients have to be solublized in cosmetically acceptable solvents. The following table indicates the ease of solubility of glabridin and the licorice extract in contrast to Ursolic acid, a terpenoid compound used in cosmetics for similar claims.

As to `CC1(C)C=Cc2c(ccc3c2OC[C@@H](c2ccc(O)cc2O)C3)O1` [glabridin, Glabridin], the ease of solubility entry is recorded as “much more easily soluble than Ursolic acid”.

(Values after patent US20040121031A1, “Novel topical skin care and nutraceutical applications of Glabridin or extracts containing a defined amount (4-90%) of Glabridin” (priority 2002, published 2004).)
